Data from US8431522B2, “Methods of inhibiting tumor cell proliferation” (The Board of Trustees of the University of Illinois, priority 2003, dated 2013).
“Also recorded” adds a separate entry of the source. Non-standard residues stand in square brackets, D forms with d. No end group written: not given here.

Experiments:
[1] = tested on: GFP-FoxM1B fusion protein; experiment: Localization of GFP-FoxM1B fusion protein in transfected U2OS cells (fluorescence); type: cell-based, human; details: for targeting of GFP-FoxM1B protein to the nucleolus: cotransfection of expression vector
Excerpt: FIGS. 7A-H show nuclear localization of GFP-FoxM1B fusion protein following treatment with either pharmacological kinase inhibitors or dominant negative kinases. U20S cells were transiently transfected with CMV GFP-FoxM1B with the indicated pharmacological kinase inhibitors (B-D) or dominant-negative kinase expression vectors (E-H). Cells in panel (A) were untreated.
U2OS cells were transiently transfected in 2 well chamber slides (Nunc) with CMV GFP-FoxM1B expression constructs in the presence or absence of either CMV WT T7-p19^ARF, CMV HA-p19^ARF, or CMV expression constructs containing either N-terminal mutant T7-p19^ARF proteins (Δ1-14, Δ15-25, or Δ26-37) or V5-TAT-p19^ARF proteins (26-44; SEQ ID NO: 11, or 26-55; SEQ ID NO: 12). U2OS cells were transiently transfected with CMV EGFP expression vector containing the TAT-p19^ARF proteins (26-44; SEQ ID NO: 11, or 26-55; SEQ ID NO: 12). Forty-eight hours post transfection, cells were fixed in 4% Para-formaldehyde for 20 minutes at room temperature. GFP fluorescence or immuno-fluorescence with anti-HA antibody following TRITC conjugated secondary antibody was detected using a Zeiss microscope. U2OS cells were treated with 12 μM of the arrrarrKFVRSRRPRTASCALAFVN (SEQ ID NO: 10) peptide for 24 hours and then analyzed for TRITC fluorescence as described above.

FoxM1B protein = molecular target: T1, FoxM1B protein (Homo sapiens, UniProt Q08050); experiment: Co-immunoprecipitation of V5-tagged p19ARF sequences with GFP-FoxM1B from transfected U2OS extracts; type: binding; details: V5 antibody IP, GFP Western blot
T1 construct: expressed in transfected cells; host or cells: U2OS (human osteosarcoma) cells, transient transfection
T1 sequence (Q08050 1-748 isoform Q08050-2): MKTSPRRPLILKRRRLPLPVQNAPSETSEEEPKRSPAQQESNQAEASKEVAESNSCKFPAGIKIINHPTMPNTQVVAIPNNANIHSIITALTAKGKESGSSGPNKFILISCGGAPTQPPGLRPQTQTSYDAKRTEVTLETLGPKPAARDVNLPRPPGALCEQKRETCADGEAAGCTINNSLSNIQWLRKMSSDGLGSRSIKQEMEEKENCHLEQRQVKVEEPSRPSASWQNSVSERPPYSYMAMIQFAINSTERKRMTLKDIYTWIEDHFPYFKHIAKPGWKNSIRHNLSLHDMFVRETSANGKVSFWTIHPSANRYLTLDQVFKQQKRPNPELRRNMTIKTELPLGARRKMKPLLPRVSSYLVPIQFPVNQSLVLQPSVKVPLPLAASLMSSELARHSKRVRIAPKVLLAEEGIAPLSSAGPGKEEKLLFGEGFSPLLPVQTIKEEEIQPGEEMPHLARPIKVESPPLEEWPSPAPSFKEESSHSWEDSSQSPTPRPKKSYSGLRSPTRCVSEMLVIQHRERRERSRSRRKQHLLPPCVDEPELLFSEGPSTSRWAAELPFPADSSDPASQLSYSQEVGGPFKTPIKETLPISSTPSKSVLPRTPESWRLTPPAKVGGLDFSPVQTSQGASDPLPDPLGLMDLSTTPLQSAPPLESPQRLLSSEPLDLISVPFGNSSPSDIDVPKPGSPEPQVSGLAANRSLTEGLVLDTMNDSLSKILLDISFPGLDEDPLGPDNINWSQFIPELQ
Experimental: The p19 protein was immunoprecipitated from transfected protein extracts with V5 epitope antibody followed by Western blot analysis with GFP monoclonal antibody.
To identify p19 protein sequences that are sufficient for association with FoxM1B protein, Co-IP assays were performed with protein extracts prepared from U2OS cells that were transiently transfected with CMV GFP-FoxM1B expression plasmid and the CMV expression vector containing the V5 epitope tagged p19^ARF 26-44 or p19^ARF 26-55 sequences. At the amino terminus of either the p19^ARF sequences 26 to 44 or 26 to 55, we placed the protein transduction/nuclear localization domain ([…]; SEQ ID NO: 13) from the HIV-TAT protein (Becker-Hapak et al., 2001, Methods 24:247-256). Protein extracts were incubated with the V5 epitope tag antibody to IP the p19 protein followed by Western blot analysis with GFP monoclonal antibody to detect the GFP-FoxM1B fusion protein.

[2] = tested on: FoxM1B transcriptional activity; experiment: FoxM1B transcription assay with 6X FoxM1B TATA-luciferase reporter in transfected U2OS cells; type: cell-based, human
Experimental: U20S TetR cells were transiently co-transfected with the reporter 6X-FoxM1B-TATA-Luciferase and CMV-TO-FoxM1B (500 ng) alone or with increasing amounts of either CMV-DN-Cdk1, Cdk1 pharmacological inhibitor Alsterpaullone or CMV-Myt1. Results are expressed as the percent activity with respect to wild-type FoxM1B using four separate transfection experiments were performed in triplicate to calculate ±SD.
U20S TetR cells were transiently co-transfected with the reporter 6X-FoxM1B-TATA-Luciferase and CMV-TO-FoxM1B (500 ng) with CMV-DN-p90Rsk, CMV-DN-Ras or DN-AKT or with 50 μM of either U0126 or Ly294002 alone or together or with 25 μM of Akt inhibitor. Four separate transfection experiments were performed in triplicate to calculate ±SD.
A 6X FoxM1B/FoxA TATA-Luciferase utilized 6 copies of the FoxM1B/FoxA binding site (TTTGTTTGTTTG; SEQ ID NO: 6) from the cdx-2 promoter region driving expression of the CMV-TATA box luciferase reporter gene as described previously (Rausa et al., 2003, Mol. Cell. Biol. 23:437-449; Samadani et al., 1996, Mol. Cell. Biol. 16:6273-6284; Ye et al., 1997, Mol. Cell Biol. 17:1626-1641).
Inhibiting Cdk1 activity with either dominant negative (DN) Cdk1 or a pharmacologically active concentration of Alsterpaullone (1 μM) caused an 80% to 90% reduction in FoxM1B transcriptional activity (FIG. 6C). […] Consistent with these findings, stimulation of Cdk1 activity by co-transfection of either CMV Cdc25B or Cdc25C phosphatases enhanced FoxM1B transcriptional activity by 3.4-fold and 1.7-fold, respectfully (FIGS. 6B and 6D). […]
Human osteosarcoma U2OS cells were maintained in DMEM supplemented with 10% fetal calf serum, 1× Pen/Strep and 1× L-Glutamine (Gibco). […] Luciferase activity was determined as percent of wild type FoxM1B activity following normalization to Renilla activity. Experiments were performed at least four times in triplicate and mean±SD determined. […]

U2OS cells = experiment: Cellular uptake and localization of TRITC-tagged peptide in U2OS cells; type: cell-based, human; details: 12 μM, three days
parental U2OS cells = experiment: Soft agar colony formation, parental (wild type) U2OS cells; type: cell-based, human; details: 12 μM peptide, two weeks
Experimental: The T-REx™-U2OS cells were purchased from Invitrogen Life Technologies (Catalog No. R712-07). The T-REx™-U2OS cells express the Tet repressor from pCEP4/tetR that was episomally maintained in tissue culture medium containing 10% fetal calf serum and drug selection with 50 μg/ml of Hygromycin B. Tetracycline regulation in the T-REx System was based on the binding of tetracycline to the TET repressor and de-repressing of the CMV-TETO promoter controlling expression of the gene of interest (Yao et al., 1998, Hum Gene Ther 9:1939-1950). The pCDNA4-TO GFP-FoxM1B expression plasmid provided in the T-REx™ system was generated as described previously (Major et al., 2004, Mol. Cell. Biol. 24:2649-2661) and transfected T-REx™-U2OS cells with linearized pCDNA4-TO GFP-Foxm1b expression plasmid to select clonal Doxycycline inducible GFP-Foxm1b U2OS cell lines. CMV-TETO GFP-FoxM1B U2OS clones were isolated by selection for three weeks with tissue culture medium containing 50 μg/ml of Hygromycin B and 250 μg/ml of Zeocin. […] Wild type U2OS cells or CMV-TETO GFP-Foxm1b U2OS clone C3 cells were grown in medium with or without 1 μg/ml of Doxycycline for 2 days prior to either adding the (D-Arg)9-p19^ARF 26-44 peptide or left untreated. […] U2OS cell colonies that were larger than 1 mm in size were scored after two weeks of growth on the soft agar.

U2OS clone C3 cells = experiment: Soft agar colony formation, Doxycycline induced CMV-TETO GFP-FoxM1B U2OS clone C3 cells; type: cell-based, human; details: 12 μM peptide, 1 μg/ml Doxycycline, two weeks
Experimental: The T-REx™-U2OS cells were purchased from Invitrogen Life Technologies (Catalog No. R712-07). The T-REx™-U2OS cells express the Tet repressor from pCEP4/tetR that was episomally maintained in tissue culture medium containing 10% fetal calf serum and drug selection with 50 μg/ml of Hygromycin B. Tetracycline regulation in the T-REx System was based on the binding of tetracycline to the TET repressor and de-repressing of the CMV-TETO promoter controlling expression of the gene of interest (Yao et al., 1998, Hum Gene Ther 9:1939-1950). […] U2OS cell colonies that were larger than 1 mm in size were scored after two weeks of growth on the soft agar.
In addition, the tetracycline (TET) regulated T-REx™ System described above was used to conditionally express the GFP-FoxM1B protein in U2OS cells to determine whether conditional overexpression of FoxM1B protein could enhance anchorage-independent growth of U2OS cells. […] The U2OS clone C3 cell line was selected to examine whether doxycycline induced FoxM1B-GFP expression enhanced anchorage-independent growth as assessed by propagation for two weeks on soft agar (Conzen et al., 2000, Mol Cell Biol 20:6008-6018).

[3] = cotransfection of CMV expression vector, U2OS cells

**Q.** Which “nuclear localization of transfected CMV GFP-FoxM1B protein” value ([1]; Alsterpaullone 1 μM) does the source give for `O=C1Cc2c([nH]c3ccc([N+](=O)[O-])cc23)-c2ccccc2N1` [Alsterpaullone, reference compound] here?
**A.** Neither DN-Cdk1 nor Alsterpaullone (1 μM) altered nuclear localization

**Q.** “KFVRSRRPRTASCALAFVN (Mus Musculus) [V5-TAT-p19^ARF 26-44]” was tested. Which “association with FoxM1B protein (Co-IP)” value (FoxM1B protein) did it give?
**A.** sufficient to associate with the FoxM1B protein

**Q.** And the FoxM1B transcriptional activity [2, 3]?
**A.** able to significantly decrease FoxM1B transcriptional activity

**Q.** And the “targeting of GFP-FoxM1B protein to the nucleolus” value [1]?
**A.** targeted to the nucleolus

**Q.** Which results are given for “KFVRSRRPRTASCALAFVNMLLRLERILRR (listed as Mus musculus) [V5-TAT-p19^ARF 26-55]”?
**A.** FoxM1B transcriptional activity [2, 3]: able to significantly decrease FoxM1B transcriptional activity; targeting of GFP-FoxM1B protein to the nucleolus [1]: targeted to the nucleolus

**Q.** What does the source list for “rrrrrrrrrKFVRSRRPRTASCALAFVN ([dR][dR][dR][dR][dR][dR][dR][dR][dR]KFVRSRRPRTASCALAFVN; listed as Mus musculus) [(D-Arg)9-p19^ARF 26-44 peptide, p19ARF 26-44 peptide containing nine D-Arg residues at the N-terminus]”?
**A.** transduction into cells and localization of peptide fluorescence (U2OS cells): efficiently transduced into all of the cells and that its fluorescence localized to the nucleolus; also recorded: transduced into the cell and was localized to the nucleolus; FoxM1B transcriptional activity ([2]; 12 μM peptide, 24 hours, transfected U2OS cells): significant reduction in FoxM1B transcriptional activity; also recorded: effective inhibitor of FoxM1B transcriptional activity; colony formation on soft agar (parental U2OS cells): significantly diminished the ability of the parental U2OS cells to form colonies on soft agar; also recorded: significantly inhibited colony formation of U2OS cells on soft agar; FoxM1B induced colony formation on soft agar (U2OS clone C3 cells): significantly diminished the ability of induced GFP-FoxM1B to stimulate colony formation
